{"source": "paper PMC11078746", "about": "(Nature, 2024)", "system": "SW48 xenografts", "experiment": "SW48 cell-derived xenograft efficacy, HRO761 orally once daily", "type": "in vivo, mouse", "protocol": "All animal studies were conducted in accordance with ethics and procedures covered by permit BS-2275 and BS-1975 issued by the Kantonales Veterinäramt Basel-Stadt and in strict adherence to guidelines of the Eidgenössisches Tierschutzgesetz and the Eidgenössische Tierschutzverordnung, Switzerland. All animal studies were approved by the internal ethics committee. All animals had access to food and water ad libitum and were identified with transponders. They were housed in a specific-pathogen-free facility in IVC racks under a 12 h–12 h light–dark cycle. To establish cell-line-derived xenograft models, 6–7-week-old female athymic nude (Crl:NU(NCr)-Foxn1^nu) or SCID-BEIGE (CB17.Cg-PrkdcscidLystbg-J/Crl) mice from Charles River were engrafted subcutaneously with 5 million tumour cells in HBSS (H6648, Sigma-Aldrich). For SNU-407, Lovo, IM95, RL95.2, Ishikawa and IGROV-1, the cells were concentrated in 50% Matrigel (354234, Corning). Patient-derived xenografts were induced and expanded by transplantation as previously described. […] For the efficacy experiment, mice were randomized into groups (n = 5–6) for a mean tumour size of 100–150 mm^3. […] Blood samples were collected on day 7 and 91. […] Tumour responses are reported with the measures of tumour volumes from the treatment start. […] Animals were randomized (n = 3) and tumour samples were collected at 0, 1, 4, 8 and 24 h on the first day and then collected 4 h after the last treatment on day 3, 8, 10, 14 (including a 24 h timepoint), 17 and 21. Tumours were excised, weighed, either frozen in liquid nitrogen and cryogenic dry pulverized with the CryoPrep system (model CP-02, Covaris) or processed to FFPE after fixation. […] On day 12, blood samples were collected for PK analysis. On the last day (3 h after the last treatment), tumours were excised, weighed, frozen in liquid nitrogen and cryogenic dry pulverized for PD analysis.", "note": "Several values for one entry are separate records, joined by “and”; a condition that tells them apart may be missing. Equal values may be shown once.", "data": [{"smiles": "CCc1c(N2CCN(C(=O)c3ncnc(C)c3O)CC2)c(=O)n2nc(C3=CCOCC3)nc2n1CC(=O)Nc1ccc(C(F)(F)F)cc1Cl", "note": "[HRO761]", "values": [{"measurement": "Mean TVol", "setting": "HRO761 60mg/kg, day 10 post 1st dose", "value": 139.22, "unit": "mm3"}, {"measurement": "Mean TVol", "setting": "HRO761 60mg/kg, day 14 post 1st dose", "value": 143.74, "unit": "mm3"}, {"measurement": "TVol, individual mouse", "setting": "HRO761 60mg/kg, day 14 post 1st dose, 60 mg/kg", "value": "168.86 mm3 and 112.65 mm3 and 68.51 mm3 and 225.46 mm3 and 143.2 mm3"}, {"measurement": "Mean TVol", "setting": "HRO761 60mg/kg, day 17 post 1st dose", "value": 92.17, "unit": "mm3"}, {"measurement": "TVol, individual mouse", "setting": "HRO761 60mg/kg, day 17 post 1st dose, 60 mg/kg", "value": "122.04 mm3 and 68.7 mm3 and 47.51 mm3 and 127.77 mm3 and 94.82 mm3"}, {"measurement": "Mean TVol", "setting": "HRO761 60mg/kg, day 21 post 1st dose", "value": 94.01, "unit": "mm3"}, {"measurement": "TVol, individual mouse", "setting": "HRO761 60mg/kg, day 21 post 1st dose, 60 mg/kg", "value": "102.4 mm3 and 77.05 mm3 and 73.43 mm3 and 131.39 mm3 and 85.79 mm3"}, {"measurement": "Mean TVol", "setting": "HRO761 60mg/kg, day 24 post 1st dose", "value": 58.88, "unit": "mm3"}, {"measurement": "TVol, individual mouse", "setting": "HRO761 60mg/kg, day 24 post 1st dose, 60 mg/kg", "value": "71.44 mm3 and 52.46 mm3 and 38.57 mm3 and 82.39 mm3 and 49.52 mm3"}, {"measurement": "Mean TVol", "setting": "HRO761 60mg/kg, day 28 post 1st dose", "value": 51.50, "unit": "mm3"}, {"measurement": "TVol, individual mouse", "setting": "HRO761 60mg/kg, day 28 post 1st dose, 60 mg/kg", "value": "56.2 mm3 and 60.49 mm3 and 22.48 mm3 and 76.24 mm3 and 42.11 mm3"}, {"measurement": "Mean TVol", "setting": "HRO761 60mg/kg, day 31 post 1st dose", "value": 37.85, "unit": "mm3"}, {"measurement": "Mean TVol", "setting": "HRO761 60mg/kg, day 35 post 1st dose", "value": 35.63, "unit": "mm3"}, {"measurement": "Mean TVol", "setting": "HRO761 60mg/kg, day 38 post 1st dose", "value": 32.12, "unit": "mm3"}, {"measurement": "Mean TVol", "setting": "HRO761 60mg/kg, day 42 post 1st dose", "value": 26.69, "unit": "mm3"}, {"measurement": "Mean TVol", "setting": "HRO761 60mg/kg, day 45 post 1st dose", "value": 28.41, "unit": "mm3"}, {"measurement": "Mean TVol", "setting": "HRO761 60mg/kg, day 49 post 1st dose", "value": 28.59, "unit": "mm3"}, {"measurement": "Mean TVol", "setting": "HRO761 60mg/kg, day 52 post 1st dose", "value": 39.66, "unit": "mm3"}, {"measurement": "Mean TVol", "setting": "HRO761 60mg/kg, day 56 post 1st dose", "value": 41.29, "unit": "mm3"}, {"measurement": "Mean TVol", "setting": "HRO761 60mg/kg, day 59 post 1st dose", "value": 58.21, "unit": "mm3"}, {"measurement": "Mean TVol", "setting": "HRO761 60mg/kg, day 63 post 1st dose", "value": 63.07, "unit": "mm3"}, {"measurement": "Mean TVol", "setting": "HRO761 60mg/kg, day 66 post 1st dose", "value": 73.43, "unit": "mm3"}, {"measurement": "Mean TVol", "setting": "HRO761 60mg/kg, day 70 post 1st dose", "value": 92.32, "unit": "mm3"}, {"measurement": "Mean TVol", "setting": "HRO761 60mg/kg, day 73 post 1st dose", "value": 100.10, "unit": "mm3"}, {"measurement": "Mean TVol", "setting": "HRO761 60mg/kg, day 76 post 1st dose", "value": 118.12, "unit": "mm3"}, {"measurement": "Mean TVol", "setting": "HRO761 60mg/kg, day 79 post 1st dose", "value": 144.54, "unit": "mm3"}, {"measurement": "Mean TVol", "setting": "HRO761 60mg/kg, day 83 post 1st dose", "value": 167.90, "unit": "mm3"}, {"measurement": "Mean TVol", "setting": "HRO761 60mg/kg, day 86 post 1st dose", "value": 197.43, "unit": "mm3"}, {"measurement": "Mean TVol", "setting": "HRO761 60mg/kg, day 90 post 1st dose", "value": 250.29, "unit": "mm3"}, {"measurement": "Mean TVol", "setting": "HRO761 60mg/kg, day 92 post 1st dose", "value": 257.93, "unit": "mm3"}, {"measurement": "Mean TVol", "setting": "HRO761 120mg/kg, day 0 post 1st dose", "value": 148.61, "unit": "mm3"}, {"measurement": "Mean TVol", "setting": "HRO761 120mg/kg, day 3 post 1st dose", "value": 165.08, "unit": "mm3"}, {"measurement": "Mean TVol", "setting": "HRO761 120mg/kg, day 7 post 1st dose", "value": 155.01, "unit": "mm3"}, {"measurement": "Mean TVol", "setting": "HRO761 120mg/kg, day 10 post 1st dose", "value": 143.90, "unit": "mm3"}, {"measurement": "Mean TVol", "setting": "HRO761 120mg/kg, day 14 post 1st dose", "value": 109.57, "unit": "mm3"}, {"measurement": "TVol, individual mouse", "setting": "HRO761 120mg/kg, day 14 post 1st dose, 120 mg/kg", "value": "89.55 mm3 and 116.21 mm3 and 96.68 mm3 and 110.56 mm3 and 134.85 mm3"}, {"measurement": "Mean TVol", "setting": "HRO761 120mg/kg, day 17 post 1st dose", "value": 76.89, "unit": "mm3"}, {"measurement": "TVol, individual mouse", "setting": "HRO761 120mg/kg, day 17 post 1st dose, 120 mg/kg", "value": "65.99 mm3 and 76.61 mm3 and 69.65 mm3 and 76.31 mm3 and 95.9 mm3"}, {"measurement": "Mean TVol", "setting": "HRO761 120mg/kg, day 21 post 1st dose", "value": 60.65, "unit": "mm3"}, {"measurement": "TVol, individual mouse", "setting": "HRO761 120mg/kg, day 21 post 1st dose, 120 mg/kg", "value": "36.03 mm3 and 67.66 mm3 and 49.83 mm3 and 57.7 mm3 and 92.01 mm3"}, {"measurement": "Mean TVol", "setting": "HRO761 120mg/kg, day 24 post 1st dose", "value": 40.88, "unit": "mm3"}, {"measurement": "TVol, individual mouse", "setting": "HRO761 120mg/kg, day 24 post 1st dose, 120 mg/kg", "value": "38.27 mm3 and 45.09 mm3 and 38.11 mm3 and 31.94 mm3 and 50.97 mm3"}, {"measurement": "Mean TVol", "setting": "HRO761 120mg/kg, day 28 post 1st dose", "value": 35.35, "unit": "mm3"}, {"measurement": "TVol, individual mouse", "setting": "HRO761 120mg/kg, day 28 post 1st dose, 120 mg/kg", "value": "32.65 mm3 and 37.62 mm3 and 34.55 mm3 and 23.01 mm3 and 48.93 mm3"}, {"measurement": "Mean TVol", "setting": "HRO761 120mg/kg, day 31 post 1st dose", "value": 23.02, "unit": "mm3"}, {"measurement": "Mean TVol", "setting": "HRO761 120mg/kg, day 35 post 1st dose", "value": 18.60, "unit": "mm3"}, {"measurement": "Mean TVol", "setting": "HRO761 120mg/kg, day 38 post 1st dose", "value": 15.04, "unit": "mm3"}, {"measurement": "Mean TVol", "setting": "HRO761 120mg/kg, day 42 post 1st dose", "value": 15.24, "unit": "mm3"}, {"measurement": "Mean TVol", "setting": "HRO761 120mg/kg, day 45 post 1st dose", "value": 22.14, "unit": "mm3"}, {"measurement": "Mean TVol", "setting": "HRO761 120mg/kg, day 49 post 1st dose", "value": 17.54, "unit": "mm3"}, {"measurement": "Mean TVol", "setting": "HRO761 120mg/kg, day 52 post 1st dose", "value": 14.62, "unit": "mm3"}, {"measurement": "Mean TVol", "setting": "HRO761 120mg/kg, day 56 post 1st dose", "value": 23.36, "unit": "mm3"}, {"measurement": "Mean TVol", "setting": "HRO761 120mg/kg, day 59 post 1st dose", "value": 24.12, "unit": "mm3"}, {"measurement": "Mean TVol", "setting": "HRO761 120mg/kg, day 63 post 1st dose", "value": 25.71, "unit": "mm3"}, {"measurement": "Mean TVol", "setting": "HRO761 120mg/kg, day 66 post 1st dose", "value": 34.04, "unit": "mm3"}, {"measurement": "Mean TVol", "setting": "HRO761 120mg/kg, day 70 post 1st dose", "value": 39.42, "unit": "mm3"}, {"measurement": "Mean TVol", "setting": "HRO761 120mg/kg, day 73 post 1st dose", "value": 45.77, "unit": "mm3"}, {"measurement": "Mean TVol", "setting": "HRO761 120mg/kg, day 76 post 1st dose", "value": 45.68, "unit": "mm3"}, {"measurement": "Mean TVol", "setting": "HRO761 120mg/kg, day 79 post 1st dose", "value": 54.31, "unit": "mm3"}, {"measurement": "Mean TVol", "setting": "HRO761 120mg/kg, day 83 post 1st dose", "value": 66.91, "unit": "mm3"}, {"measurement": "Mean TVol", "setting": "HRO761 120mg/kg, day 86 post 1st dose", "value": 85.46, "unit": "mm3"}, {"measurement": "Mean TVol", "setting": "HRO761 120mg/kg, day 90 post 1st dose", "value": 91.43, "unit": "mm3"}, {"measurement": "Mean TVol", "setting": "HRO761 120mg/kg, day 92 post 1st dose", "value": 94.97, "unit": "mm3"}, {"measurement": "Best average response", "setting": "SW48, colorectal carcinoma, 60 or 120 mg/kg", "value": -90}, {"measurement": "tumour regressions", "setting": "higher doses than 20 mg per kg, once daily oral, up to 60 days", "value": "75–90%"}]}]}
